This passage reports melting point results from a melting point compilation (Tetko et al.; mined from patent text by program, amines drawn as free bases though some values may be those of a salt).

Structures are written as SMILES.

For `Cc1ccc2c(=O)c(CS(C)(=O)=O)cn(C)c2c1`, the melting point lay in the range of 193 to 195 °C. `COc1ccc(C2Sc3cc(Cl)c(Cl)cc3N(CCN(C)C)C(=O)C2O)cc1` (centres undefined): the melting point was 178 to 180 °C. In the case of `CC(C)c1ccc(O)c(C(C)C)c1NC(=O)CN1CCN(CCSc2nc3ccccc3o2)CC1`, the melting point fell in the range of 96 to 98 °C.

Take `O=C(N[C@@H]1CCN(CCNc2ncccn2)C[C@H]1O)c1cccc(C(F)(F)F)c1` (relative stereo): the melting point worked out at 148 °C. The figure for `CSC(=S)NN=Cc1c[nH]c(C)n1` is 274 to 279 °C.

The compound `CNS(=O)(=O)c1ccc2c3c(cc([N+](=O)[O-])c2c1)N(C(=O)c1cc2cc(OCCN(C)C)ccc2[nH]1)CC3CCl` (centres undefined) yielded a melting point of more than 350 °C. The compound `Cc1cc(SCc2ccc(-c3ccc(C(F)(F)F)cc3)cc2)c2c(c1OCC(=O)O)CCC2` returned a melting point of 177 °C. The figure for `N#Cc1ccc(-c2ccc3nc(-c4ccc(C#N)cc4)cn3c2)cc1` is 292 to 294 °C; for `OC1CCc2ccc(Cl)cc2C1` (centres undefined) it is 79 to 81 °C; for `Cc1oc(-c2ccco2)nc1COc1ccc(COc2nn(Cc3ccccc3)cc2C=O)cn1` it is 104 to 105 °C. The figure for `COCCN1CCN(CCCOc2ccc3nc(C#N)nc(NCC(C)(C)C)c3c2)CC1` is 92 to 94 °C.

`CCOC(=O)C=Cc1cccc([N+](=O)[O-])c1C`: the melting point was 53 to 55 °C. The figure for `CCON=C(CC)C1=C(O)CC(c2ccc(Sc3ccc(S(C)(=O)=O)cn3)cc2)CC1=O` (centres undefined) is 126 to 128 °C; for `CSc1nc(=O)n(C)cc1F` it is 154 °C; for `O=C1CNC(c2cccc(Cc3ccccc3)c2)=NN1CC(F)(F)F` it is 104 to 106 °C. The figure for `Cc1cn(C(C)(C)C(=O)NC(C)(C)C)nc1-c1ccccc1` is 71 to 75 °C; for `CCOC(=O)c1cn(C2CC2)c2c(F)c(N3CCNC(C)C3)c(F)c(N)c2c1=O` (centres undefined) it is 132 to 134 °C; for `Cc1cc2c(N=C3SCC4Cc5sccc5CN34)cccc2cn1` (racemic) it is 159 °C. The figure for `COCCOC(=O)c1ccccc1Nc1nc(Nc2cc3c(cc2OC)CCN(CC(C)O)CC3)ncc1Cl` (centres undefined) is 100 °C; for `Cc1nn(CC(=O)COCc2ccccc2)c(-c2ccc(F)cc2)c1-c1ccc2c(c1)NC(=O)CO2` it is 154 to 155 °C.

The compound `O=C(O)C(Cc1ccccc1)=NNc1ccc(Cl)c(Cl)c1` registered a melting point of 166 to 167 °C.

For `COC(=O)c1c(CC#N)ncn1C1CCCCO1` (centres undefined), the melting point lay in the range of 82 to 83 °C. The figure for `CN1CCC(c2nc3cccnc3[nH]2)CC1` is 224 to 226 °C; for `Cc1nc(N2CCC(Cc3ccc(OC(F)F)cc3)C2=O)sc1C(=O)NCc1ccc(F)cc1` (centres undefined) it is 143 to 145 °C. The figure for `CC(=O)NC12CC3CC(C)(CC(C)(C3)C1)C2` is 113 to 114 °C.

Consider `COCn1cc2cc(C)c(NC(=O)c3cc(OC)nn3-c3ncccc3Cl)c(C(=O)NC(C)C)c2n1`, for which the melting point was found to be 148 °C.

Regarding `COc1cccc(N(CC(=O)O)C(=O)CN2C(=O)c3ccccc3C2=O)c1`, the melting point is 198 °C. The figure for `CC(=O)N=c1[nH]c2ccccc2n1C1CCNCC1` is 164 °C; for `O=C(CN1C(=O)C(NC(=O)OCc2ccccc2)N=C(c2ccccc2)c2ccccc21)NCc1ccccc1` (centres undefined) it is 204 to 205 °C. The figure for `CC(C)OC(=O)C(C)(C)Oc1ccc(C(=O)c2ccc(O)cc2)cc1` is 124 °C. The figure for `CCCCCCCC(=O)c1ccc(CCC(C)(CCOC(C)=O)NC(C)=O)cc1` (centres undefined) is 83 to 84 °C; for `O=C(O)COc1ccc(SCc2ccc(OCc3ccc(CF)cc3)cc2)c2c1CCC2` it is 153 to 155 °C; for `CCN1c2ncc(CO)cc2C(=O)N(C)c2ccc(Cl)nc21` it is 166 to 168 °C. `Cc1cc2oc(=O)c3c(c2cc1Cl)CCNC3` showed a melting point of 184 to 185 °C.
